Laboratory results published in ChEMBL document CHEMBL2417426, “Synthesis of quaternary α-amino acid-based arginase inhibitors via the Ugi reaction” (Bioorg Med Chem Lett, 2013).

Legend:
[1] = Octanol-phosphate buffer partition coefficient, log D of the compound by shake-flask method; assay type: physicochemical
[2] = Bioavailability in ip dosed rat; assay type: ADME, organism-based; conditions: in vivo
Arginase-1 = biological target: T1, Arginase-1 (Homo sapiens, UniProt P05089); test: Inhibition of human arginase-1 assessed as L-arginine conversion to L-ornithine measured as urea level after 1 hr by colorimetric assay
T1 sequence (P05089 whole entry): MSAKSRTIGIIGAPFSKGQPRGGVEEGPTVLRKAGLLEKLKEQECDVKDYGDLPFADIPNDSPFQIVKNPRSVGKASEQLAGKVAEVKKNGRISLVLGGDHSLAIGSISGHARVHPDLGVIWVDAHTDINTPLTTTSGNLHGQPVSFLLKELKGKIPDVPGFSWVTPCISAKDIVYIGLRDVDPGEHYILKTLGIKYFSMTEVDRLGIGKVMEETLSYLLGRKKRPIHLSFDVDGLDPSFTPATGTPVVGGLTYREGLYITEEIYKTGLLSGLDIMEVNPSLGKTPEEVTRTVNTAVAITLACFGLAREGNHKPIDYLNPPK

[3] = biological target: T2, Arginase-2, mitochondrial (Homo sapiens, UniProt P78540); test: Inhibition of human arginase-2 assessed as L-arginine conversion to L-ornithine measured as urea level after 1 hr by colorimetric assay
T2 sequence (P78540 whole entry): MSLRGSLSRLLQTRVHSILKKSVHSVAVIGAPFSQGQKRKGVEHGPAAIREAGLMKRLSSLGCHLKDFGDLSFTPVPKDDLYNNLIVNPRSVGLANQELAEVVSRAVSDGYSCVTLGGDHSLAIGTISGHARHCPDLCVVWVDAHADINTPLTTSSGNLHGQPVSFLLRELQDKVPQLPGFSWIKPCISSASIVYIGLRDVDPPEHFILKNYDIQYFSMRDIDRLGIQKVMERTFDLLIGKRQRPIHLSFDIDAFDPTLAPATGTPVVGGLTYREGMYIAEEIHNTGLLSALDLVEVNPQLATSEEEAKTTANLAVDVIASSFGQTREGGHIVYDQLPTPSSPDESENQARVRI

Plasma = test: Initial plasma concentration in rat; assay type: ADME
[4] = Half life in iv dosed rat; assay type: ADME, organism-based; conditions: in vivo
[5] = Volume of distribution at steady state in iv dosed rat; assay type: ADME, organism-based; conditions: in vivo, read-out: Vdss
Rattus norvegicus [6] = test: AUC (0 to t) in iv dosed rat; assay type: ADME, organism-based, Plasma; conditions: in vivo
Rattus norvegicus [7] = test: AUC (0 to infinity) in iv dosed rat; assay type: ADME, organism-based, Plasma; design: route intravenous, time infinity; conditions: in vivo
[8] = Mean residence time in rat; assay type: ADME, organism-based; conditions: in vivo
[9] = Clearance in iv dosed rat; assay type: ADME, organism-based; conditions: in vivo
[10] = Oral bioavailability in rat; assay type: ADME, organism-based; conditions: in vivo

## NC(CCCCB(O)O)(C(=O)O)C1CCN(Cc2ccccc2)CC1 (racemic)
[1]
  logD: -0.4
[2]
  bioavailability: < 5%
Arginase-1
  IC50: 200 nM
[3]
  IC50: 230 nM

## NC(CCCCB(O)O)(C(=O)O)C1CC2CCC(C1)N2Cc1ccccc1 (racemic)
[2]
  bioavailability: < 5%
Arginase-1
  IC50: 24 nM
[3]
  IC50: 47 nM

## NC(CCCCB(O)O)(C(=O)O)C1CC2CCC(C1)N2Cc1ccc(Cl)cc1 (racemic)
[2]
  bioavailability: < 5%
Arginase-1
  IC50: 17 nM
[3]
  IC50: 30 nM

## NC(CCCCB(O)O)(C(=O)O)C1CCN(Cc2ccc(Cl)cc2)CC1 (racemic)
[1]
  logD: 0.3
[2]
  bioavailability: < 5%
Arginase-1
  IC50: 190 nM
[3]
  IC50: 240 nM

## NC(CCCCB(O)O)(C(=O)O)C1CC2CCC(C1)N2Cc1ccc(Cl)c(Cl)c1 (racemic)
Plasma
  C0: 4770 ng/mL
[4]
  half-life: 3.12 h
[1]
  logD: 2.4
[2]
  bioavailability: > 50%
[5]
  Vd: 0.918 L/kg
Rattus norvegicus [6]
  AUCt: 0.951 kg·h/L
Rattus norvegicus [7]
  AUC: 0.994 kg·h/L
Arginase-1
  IC50: 21 nM
[8]
  MRT: 0.912 h
[9]
  clearance: 16.8 mL/min/kg
[10]
  bioavailability: 0.25%
[3]
  IC50: 23 nM

## NC(CCCCB(O)O)(C(=O)O)C1CC2CCC(C1)N2Cc1ccc(F)c(F)c1 (racemic)
[2]
  bioavailability: < 5%
Arginase-1
  IC50: 22 nM
[3]
  IC50: 33 nM

## NC(CCCCB(O)O)(C(=O)O)C1CCNCC1 (racemic)
[1]
  logD: -2.8
[2]
  bioavailability: < 5%
Arginase-1
  IC50: 380 nM
[3]
  IC50: 640 nM

## NC(CCCCB(O)O)(C(=O)O)C1CCN(CCCc2ccc(Cl)cc2Cl)CC1 (racemic)
[1]
  logD: 1.2
[2]
  bioavailability: < 5%
Arginase-1
  IC50: 100 nM
[3]
  IC50: 50 nM

## NC(CCCCB(O)O)(C(=O)O)C1CCN(C(=S)NCc2ccc(Cl)cc2)CC1 (racemic)
[2]
  bioavailability: < 5%
Arginase-1
  IC50: 330 nM
[3]
  IC50: 1120 nM

## CC(C)CCN1CCC(C(N)(CCCCB(O)O)C(=O)O)CC1 (racemic)
[1]
  logD: -1.1
[2]
  bioavailability: < 5%
Arginase-1
  IC50: 180 nM
[3]
  IC50: 230 nM

## NC(CCCCB(O)O)(C(=O)O)C1CCN(C(=O)Nc2ccc(Cl)cc2)CC1 (racemic)
[1]
  logD: 0.5
[2]
  bioavailability: < 5%
Arginase-1
  IC50: 720 nM
[3]
  IC50: 1100 nM

## NC(CCCCB(O)O)(C(=O)O)C1CCN(Cc2ccc(Cl)c(Cl)c2)CC1 (racemic)
Plasma
  C0: 4720 ng/mL
[4]
  half-life: 7.83 h
[1]
  logD: 1.5
[2]
  bioavailability: > 50%
[5]
  Vd: 1.51 L/kg
Rattus norvegicus [6]
  AUCt: 2.05 kg·h/L
Rattus norvegicus [7]
  AUC: 2.12 kg·h/L
Arginase-1
  IC50: 200 nM
[8]
  MRT: 2.14 h
[9]
  clearance: 7.87 mL/min/kg
[10]
  bioavailability: 4.8%
[3]
  IC50: 290 nM

## NC(CCCCB(O)O)(C(=O)O)C1CCN(CCc2ccc(Cl)cc2Cl)CC1 (racemic)
[2]
  bioavailability: < 5%
Arginase-1
  IC50: 210 nM
[3]
  IC50: 330 nM

## Cc1ccc(S(=O)(=O)N2CCC(C(N)(CCCCB(O)O)C(=O)O)CC2)cc1 (racemic)
[2]
  bioavailability: < 5%
Arginase-1
  IC50: 6650 nM
[3]
  IC50: 4650 nM

## NC(CCCCB(O)O)(C(=O)O)C1CCN(CCCc2ccc(C(F)(F)F)cc2)CC1 (racemic)
[2]
  bioavailability: < 5%
Arginase-1
  IC50: 120 nM
[3]
  IC50: 70 nM

## NC(CCCCB(O)O)(C(=O)O)C1CC2CCC(C1)N2 (racemic)
[2]
  bioavailability: < 5%
Arginase-1
  IC50: 80 nM
[3]
  IC50: 85 nM

## N[C@@H](CCCCB(O)O)C(=O)O
Arginase-1
  IC50: 1470 nM
[3]
  IC50: 2150 nM
